According to paper PMC7327383, “The affinity and selectivity of α‐adrenoceptor antagonists, antidepressants, and antipsychotics for the human α1A, α1B, and α1D‐adrenoceptors” (Pharmacology Research & Perspectives, 2020):
pKd: −log10 of the molar value. Read-outs that look alike come from different tables or passages of the source.

What was measured:
[1] = target: T1, human α1B-adrenoceptor (Homo sapiens, UniProt P35368); experiment: [3H]prazosin whole-cell competition binding, CHO-α1B cells; conditions: for Kd: read-out: Log KD α1B (converted)
T1 construct: CHO cells stably expressing either the full‐length human α1A, α1B, or α1D‐adrenoceptor
T1 sequence (P35368 1-520): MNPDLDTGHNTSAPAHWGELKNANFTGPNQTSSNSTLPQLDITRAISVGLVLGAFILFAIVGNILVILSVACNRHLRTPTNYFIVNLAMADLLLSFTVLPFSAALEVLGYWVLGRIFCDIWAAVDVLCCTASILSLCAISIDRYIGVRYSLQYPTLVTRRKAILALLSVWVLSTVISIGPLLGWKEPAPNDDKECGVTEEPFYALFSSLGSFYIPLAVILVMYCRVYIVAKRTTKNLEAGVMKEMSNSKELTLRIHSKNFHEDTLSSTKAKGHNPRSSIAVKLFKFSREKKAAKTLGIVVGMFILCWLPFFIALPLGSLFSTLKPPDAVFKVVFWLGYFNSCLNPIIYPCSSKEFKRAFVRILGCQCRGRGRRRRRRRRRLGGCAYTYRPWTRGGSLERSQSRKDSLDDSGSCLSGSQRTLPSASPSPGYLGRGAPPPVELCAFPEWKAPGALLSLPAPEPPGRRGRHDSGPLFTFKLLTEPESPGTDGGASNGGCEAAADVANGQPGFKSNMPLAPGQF

[2] = target: T2, full-length human α1D-adrenoceptor (Homo sapiens, UniProt P25100); experiment: [3H]prazosin whole-cell competition binding, CHO-α1D cells
T2 sequence (P25100 1-572): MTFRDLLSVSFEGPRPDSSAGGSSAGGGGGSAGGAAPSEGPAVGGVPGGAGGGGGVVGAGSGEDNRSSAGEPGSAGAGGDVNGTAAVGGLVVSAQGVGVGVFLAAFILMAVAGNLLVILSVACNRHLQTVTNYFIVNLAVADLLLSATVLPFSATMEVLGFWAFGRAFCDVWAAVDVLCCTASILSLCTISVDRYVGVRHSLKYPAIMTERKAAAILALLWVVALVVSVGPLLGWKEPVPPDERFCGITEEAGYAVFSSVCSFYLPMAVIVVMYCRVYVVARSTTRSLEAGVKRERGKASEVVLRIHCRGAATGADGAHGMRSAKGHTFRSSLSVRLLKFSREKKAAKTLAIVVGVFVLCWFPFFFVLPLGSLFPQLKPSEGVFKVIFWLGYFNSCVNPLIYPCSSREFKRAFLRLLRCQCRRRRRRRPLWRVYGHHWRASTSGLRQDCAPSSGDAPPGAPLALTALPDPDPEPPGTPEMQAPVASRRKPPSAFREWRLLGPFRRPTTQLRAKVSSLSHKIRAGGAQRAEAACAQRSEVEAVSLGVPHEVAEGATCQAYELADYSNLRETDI

[3] = target: T3, human α1A-adrenoceptor (Homo sapiens, UniProt P35348); experiment: [3H]prazosin whole-cell competition binding, CHO-α1A cells; conditions: for Kd: read-out: Log KD α1A (converted)
T3 construct: CHO cells stably expressing either the full‐length human α1A, α1B, or α1D‐adrenoceptor
T3 sequence (P35348 1-466): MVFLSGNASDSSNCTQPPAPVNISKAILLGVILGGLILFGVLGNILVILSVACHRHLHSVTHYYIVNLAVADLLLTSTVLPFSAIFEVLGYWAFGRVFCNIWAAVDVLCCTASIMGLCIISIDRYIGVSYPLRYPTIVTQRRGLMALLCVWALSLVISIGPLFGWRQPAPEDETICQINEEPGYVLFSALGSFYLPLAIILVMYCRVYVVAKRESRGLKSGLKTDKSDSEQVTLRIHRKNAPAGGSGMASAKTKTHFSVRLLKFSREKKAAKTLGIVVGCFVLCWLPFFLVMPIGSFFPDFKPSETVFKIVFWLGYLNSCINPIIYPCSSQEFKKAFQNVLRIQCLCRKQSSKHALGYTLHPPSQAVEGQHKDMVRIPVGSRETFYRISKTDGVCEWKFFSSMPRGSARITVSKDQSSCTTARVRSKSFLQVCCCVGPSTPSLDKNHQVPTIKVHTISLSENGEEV

[4] = ratio, 1 = no selectivity for a subtype over another
[5] = single-component inhibition curve, given as log KD (negative), mean ± SE mean
[6] = Log KD α1D, single-component inhibition curve, given as log KD (negative), mean ± SE mean
[7] = ratio of KD values, higher α1D affinity (site 1 KD)
[8] = ratio of KD values, higher α1A affinity, 1.0 under vs = none
[9] = ratio of KD values, printed under α1A = higher α1A affinity, 1.0 under vs = none
[10] = subtype not given, ligands with α1A selectivity (Table 1: α1A), read-out: affinity
[11] = ratio of KD values, higher α1B affinity, 1.0 under vs = none
[12] = percentage of inhibition through first component, control
[13] = high-affinity component of two-component curve, control, used for selectivity
[14] = low-affinity component of two-component curve, control
[15] = two-component inhibition curve, proportion of site 1
[16] = Log KD α1D site 1, high-affinity component of two-component curve, control, used for selectivity
[17] = log KD from 3H-prazosin whole cell binding, CHO cells, mean ± s.e.mean

selectivity α1B vs α1D [1, 4]	Kd [1, 5]	pKd [2, 6]	Selectivity ratio α1B vs α1D [2, 7]	Selectivity ratio α1A vs α1D [3, 8]	Selectivity ratio α1A vs α1B [3, 9]	Kd [3, 5]	Log KD α1A [3, 5]	% site 1 α1D [2, 12]	SMILES	% site 1 α1D [2, 15]	further results
2.8	316 nM	6.94	2.8 fold	468 fold	1288 fold	0.245 nM	–	–	C[C@H](Cc1cc2c(c(C(N)=O)c1)N(CCCO)CC2)NCCOc1ccccc1OCC(F)(F)F [Silodosin]	–	pKd [3, 10]: > 9.60
–	3630 nM	5.37	–	37 fold	32 fold	115 nM	–	–	CN(CCCN1c2ccccc2CCc2ccccc21)CC(=O)c1ccc(Cl)cc1 [Lofepramine]	–	Selectivity ratio α1B vs α1D [1, 11]: 1.2 fold
–	–	–	–	–	–	–	−8.19 ± 0.09	57.6 ± 2.8% site 1	O=C1Nc2ccccc2C2=NC(CN3CCN(c4ccccc4)CC3)CN12 (stereo not shown) [2‐PMDQ]	–	Log KD α1B [1, 5]: −6.95 ± 0.05
9.1	–	–	9.1 fold	93 fold	851 fold	–	−9.60 ± 0.05	70.5 ± 3.0% site 1	Cc1c[nH]c(=O)n(CCCN2CCN(c3ccccc3OCC(F)(F)F)CC2)c1=O [RS100329]	-7.63 ± 0.17 -5.13 ± 0.15 70.5 ± 3.0% site 1	Log KD α1B [1, 5]: −6.67 ± 0.07; Log KD α1D site 1 [2, 13]: −7.63 ± 0.17; Log KD α1D site 2 [2, 14]: −5.13 ± 0.15; pKd [3, 10]: > 9.60
7.4	3160 nM	6.37	7.4 fold	6.9 fold	51 fold	61.7 nM	–	–	COc1ccccc1N1CCN(CCCNc2cc(=O)n(C)c(=O)n2C)CC1 [Urapidil]	–	–
43	324 nM	–	43 fold	2.9 fold	15 fold	21.9 nM	–	48.8 ± 4.5% site 1	CC(C(O)c1ccc(O)cc1)N1CCC(Cc2ccccc2)CC1 (stereo not shown) [Ifenprodil]	-8.12 ± 0.18 -6.05 ± 0.13 48.8 ± 4.5% site 1	pKd [2, 16]: 8.12; Log KD α1D site 2 [2, 14]: −6.05 ± 0.13
–	871 nM	5.75	–	18 fold	8.7 fold	100 nM	–	–	CC(CN1c2ccccc2Sc2ccccc21)N(C)C (stereo not shown) [Promethazine]	–	Selectivity ratio α1B vs α1D [1, 11]: 2.0 fold
1.4	–	–	–	–	–	–	–	–	COC1(C2=NCCN2)COc2ccccc2O1 (stereo not shown) [RX 821002]	–	Log KD α1B [1, 17]: -5.46 ± 0.06; Log KD α1D [2, 17]: -5.31 ± 0.13; Log KD α1A [3, 17]: -6.51 ± 0.09; selectivity α1A vs 1D [3, 4]: 16; selectivity α1A vs α1B [3, 4]: 11
2.3	20900 nM	–	2.3 fold	34 fold	78 fold	269 nM	–	–	CC(C)NCC(O)COc1cccc2[nH]c3ccccc3c12 (stereo not shown) [Carazolol]	–	pKd ([2]; Log KD α1D (apparent), app: top concentration inhibited most but not all specific binding, curve extrapolated): 5.04
–	–	–	–	2.9 fold	3.4 fold	–	−8.57 ± 0.06	64.1 ± 4.1% site 1	O=C1c2ccccc2CCC1CNCCc1ccc(O)cc1 (stereo not shown) [HEAT]	-8.11 ± 0.18 -5.15 ± 0.26 64.1 ± 4.1% site 1	Selectivity ratio α1B vs α1D [1, 11]: 1.2 fold; Log KD α1B [1, 5]: −8.04 ± 0.04; Log KD α1D site 1 [2, 13]: −8.11 ± 0.18; Log KD α1D site 2 [2, 14]: −5.15 ± 0.26

The remaining lines, values behind:

SMILES	selectivity α1B vs α1D [1, 4]	Kd [1, 5]	pKd [2, 6]	Selectivity ratio α1B vs α1D [2, 7]	Selectivity ratio α1A vs α1D [3, 8]	Selectivity ratio α1A vs α1B [3, 9]	Kd [3, 5]	Log KD α1A [3, 5]	% site 1 α1D [2, 12]	% site 1 α1D [2, 15]	further results
COc1ccccc1N1CCN(CCCNc2c(C)c(=O)n(C)c(=O)n2C)CC1 [5‐methyl‐urapidil]	–	–	–	–	–	–	–	−8.23 ± 0.05	–	–	Log KD α1B [1]: −6.06 ± 0.04; Selectivity ratio α1B vs α1D [1]: 2.8 fold; Log KD α1D [2, 5]: −5.61 ± 0.07; Selectivity ratio α1A vs α1B [3]: 148 fold; Selectivity ratio α1A vs α1D [3]: 417 fold
CN[C@H]1CC[C@@H](c2ccc(Cl)c(Cl)c2)c2ccccc21 [Sertraline]	–	3550 nM	5.61	–	–	–	1910 nM	–	–	–	selectivity α1B vs α1D [1]: 1.4; Selectivity ratio α1B vs α1D [2]: 1.4 fold; Selectivity ratio α1A vs α1B [3]: 1.9 fold; Selectivity ratio α1A vs α1D [3]: 1.3 fold
COc1ccccc1N1CCN(CCCNc2c(C)c(=O)n(C)c(=O)n2C)CC1 [5-methyl-urapidil]	–	–	–	–	–	–	–	–	–	–	Log KD α1B [1]: -6.06 ± 0.04; selectivity α1B vs α1D [1]: 2.8; Log KD α1D [2]: -5.61 ± 0.07; Log KD α1A [3]: -8.23 ± 0.05; selectivity α1A vs 1D [3]: 417; selectivity α1A vs α1B [3]: 148
COc1ccccc1N1CCN(CC2CN3C(=O)N(C)c4ccccc4C3=N2)CC1 (stereo not shown) [2‐MPMDQ]	–	–	–	–	–	–	–	−9.06 ± 0.07	64.0 ± 2.1% site1	–	Log KD α1B [1, 5]: −7.37 ± 0.04
CN1CC[C@]2(CCN3CCc4c(oc5ccccc45)[C@@H]3C2)N(C)C1=O.Cl [MK-912]	69	–	–	–	–	–	–	–	–	61.2 ± 5.5%	Log KD α1B [1, 17]: -5.46 ± 0.05; Log KD α1D site 1 ([2]; two-component inhibition curve, first (high-affinity) component): -7.30 ± 0.16; Log KD α1D site 2 ([2]; two-component inhibition curve, second (low-affinity) component): -5.50 ± 0.25; Log KD α1A [3, 17]: -6.76 ± 0.03; selectivity α1A vs 1D [3, 4]: 3.5; selectivity α1A vs α1B [3, 4]: 20
CN1CC[C@]2(CCN3CCc4c(oc5ccccc45)[C@@H]3C2)N(C)C1=O.Cl [MK‐912]	–	–	–	69 fold	–	20 fold	–	−6.76 ± 0.03	61.2 ± 5.5% site 1	–	Log KD α1B [1, 5]: −5.46 ± 0.05; Log KD α1D site 1 [2, 13]: −7.30 ± 0.16; Log KD α1D site 2 [2, 14]: −5.50 ± 0.25; Selectivity ratio α1A vs α1D [2, 7]: 3.5 fold
CN1CCc2cccc(Cl)c2CC1 [SKF86466]	–	–	–	–	–	–	–	–	–	–	pKd [1]: 4.93; selectivity α1B vs α1D [1]: 1.7; pKd [2]: 5.16; Selectivity ratio α1B vs α1D [2]: 1.7 fold; pKd [3]: 6.06; Selectivity ratio α1A vs α1B [3]: 13 fold; Selectivity ratio α1A vs α1D [3]: 7.9 fold; selectivity α1A vs α1B [3]: 13.5
CC(C)(C)NCC(O)COc1cccc2[nH]c(=O)[nH]c12 (stereo not shown) [CGP12177]	–	–	4.20	>1.6 fold	8.7 fold	>14 fold	7240 nM	–	–	–	IC50 ([1]; read-out: Log IC50 α1B (converted)): > 100000 nM
O=C1Nc2ccccc2C2=NC(CN3CCN(c4ccccc4)CC3)CN12 (stereo not shown) [2-PMDQ]	–	–	–	–	–	–	–	–	–	57.6 ± 2.8%	Log KD α1B [1, 17]: -6.95 ± 0.05; % site 1 α1D ([2]; share of site 1 in the two-component inhibition curve): 57.6 ± 2.8%; Log KD α1A [3, 17]: -8.19 ± 0.09
Cc1nc2n(c(=O)c1CCN1CCC(c3noc4cc(F)ccc34)CC1)CCCC2O (stereo not shown) [Paliperidone]	–	43.7 nM	–	–	–	–	4.37 nM	–	57.6 ± 4.9% site 1	-7.47 ± 0.10 -5.57 ± 0.21 57.6 ± 4.9% site 1	selectivity α1B vs α1D [1]: 1.3; Log KD α1D site 2 [2]: −5.57 ± 0.21; Selectivity ratio α1B vs α1D [2]: 1.3 fold; pKd [2, 16]: 7.47; Selectivity ratio α1A vs α1B [3]: 10 fold; Selectivity ratio α1A vs α1D [3]: 7.8 fold
